Measurements taken from patent US20110020462A1, “NEW USE OF HISTONE DEACETYLASE INHIBITORS IN CHANGING MRJP3 PROTEIN IN ROYAL JELLY” (NATUREWISE BIOTECH & MEDICALS CORPORATION, priority 2009, published 2011).

Experiments:
larvae of the queen bee = experiment: Growth (weight) of larvae of the queen bee fed royal jelly secreted by young worker bees fed the test substance in sugar water; format: in vivo, Apis mellifera
MRJP3 = experiment: Ratio of 68 to 64 kDa MRJP3 protein in royal jelly (SDS-PAGE); format: in vivo, Apis mellifera
Description: Beehives with the similar expression level of MRJP3 protein were selected for use, and two beehives were tested in each control or experimental group. On the first day, the honey originally contained in the beehives was removed by shaking, and the bees (Apis mellifera) were fed sugar water twice (normal sugar water for the control group and special sugar water for the experimental group) for two days. The special sugar water was a 10-fold dilution of the formulated sugar powder in water. On the third day, 1.5-day old larvae (which were the offspring of the same queen) were inserted into the beehives, and the bees were fed once (normal sugar water for the control group and special sugar water for the experimental group). After 24, 48, and 72 hrs, 20 larvae and the royal jelly in the cells of said 20 larvae were collected for qualitative, quantitative, and proteomic analyses.
For qualitative analysis, royal jelly and sterilized water at a weight ratio of 1:10 was mixed for extraction. A particular amount of the proteins in the aqueous layer were removed for determination of protein concentration by Bradford dye-binding method (Bio-Rad protein assay, Bio-Rad Laboratories, Inc.). The absorption at 595 nm of the protein samples was determined by Elisa Reader (Bio-TEK). […]

CC(C)=CCC/C(C)=C/Cc1c([C@@H]2CC(=O)c3c(cc(O)c(CC=C(C)C)c3O)O2)ccc(O)c1O [Propolin G, propolin G]
larva weight increase (larvae of the queen bee; Example 5, 300 mg/kg, period of 24 to 48 hours, control around 1.60 fold): around 5.05 fold | larva weight increase (larvae of the queen bee; Example 5, 300 mg/kg, period of 48 to 72 hours, control around 1.22 fold): around 5.79 fold | Average weight of each larva (larvae of the queen bee; Table 6, 150 mg/kg, 24 h, control 5.23): 5.73 mg | Average weight of each larva (larvae of the queen bee; Table 6, 150 mg/kg, 48 h, control 13.57): 54.2 mg | Average weight of each larva (larvae of the queen bee; Table 6, 150 mg/kg, 72 h, control 30.07): 156.63 mg | Average weight of each larva (larvae of the queen bee; Table 6, 300 mg/kg, 24 h, control 5.23): 3.93 mg | Average weight of each larva (larvae of the queen bee; Table 6, 300 mg/kg, 48 h, control 13.57): 23.80 mg | Average weight of each larva (larvae of the queen bee; Table 6, 300 mg/kg, 72 h, control 30.07): 161.73 mg | Average weight of each larva (larvae of the queen bee; Table 6, 600 mg/kg, 24 h, control 5.23): 2.70 mg | Average weight of each larva (larvae of the queen bee; Table 6, 600 mg/kg, 48 h, control 13.57): 13.67 mg | Average weight of each larva (larvae of the queen bee; Table 6, 600 mg/kg, 72 h, control 30.07): 85.67 mg | Average weight of each larva (larvae of the queen bee; Table 8, positive control 150 mg/kg, 24 h, control 1.9): 3.6 mg | Average weight of each larva (larvae of the queen bee; Table 8, positive control 150 mg/kg, 48 h, control 13.3): 41.2 mg | Average weight of each larva (larvae of the queen bee; Table 8, positive control 150 mg/kg, 72 h, control 38.4): 178.6 mg

O=C(CCCCCCC(=O)Nc1ccccc1)NO [SAHA, suberoylanilide hydroxamide acid, reference compound]
Average weight of each larva (larvae of the queen bee; Table 8, 5 mg/kg, 24 h, control 1.9): 4.0 mg | Average weight of each larva (larvae of the queen bee; Table 8, 5 mg/kg, 48 h, control 13.3): 28.2 mg | Average weight of each larva (larvae of the queen bee; Table 8, 5 mg/kg, 72 h, control 38.4): 149.3 mg | Average weight of each larva (larvae of the queen bee; Table 8, 15 mg/kg, 24 h, control 1.9): 7.3 mg | Average weight of each larva (larvae of the queen bee; Table 8, 15 mg/kg, 48 h, control 13.3): 41.0 mg | Average weight of each larva (larvae of the queen bee; Table 8, 15 mg/kg, 72 h, control 38.4): 149.2 mg | ratio of the protein components of the royal jelly secreted by young worker bees (MRJP3; 5 to 15 mg/kg): significantly changed

CC(C)=CCC/C(C)=C/Cc1c(O)cc2c(c1O)C(=O)C[C@@H](c1ccc(O)c(O)c1)O2 [Propolin C, propolin C]
larva weight increase (larvae of the queen bee; Example 4, 100 mg/kg, period of 48 to 72 hours, control around 3.58 fold): around 6.30 fold | Average weight of each larva (larvae of the queen bee; Table 5, 50 mg/kg, 24 h, control 3.52): 2.40 mg | Average weight of each larva (larvae of the queen bee; Table 5, 50 mg/kg, 48 h, control 13.45): 15.2 mg | Average weight of each larva (larvae of the queen bee; Table 5, 50 mg/kg, 72 h, control 61.60): 70.17 mg | Average weight of each larva (larvae of the queen bee; Table 5, 100 mg/kg, 24 h, control 3.52): 2.38 mg | Average weight of each larva (larvae of the queen bee; Table 5, 100 mg/kg, 48 h, control 13.45): 13.48 mg | Average weight of each larva (larvae of the queen bee; Table 5, 100 mg/kg, 72 h, control 61.60): 98.48 mg | protein components of the royal jelly secreted by young worker bees (MRJP3; 50 to 100 mg/kg): significantly changed
